Legend:
hKCNQ2/3 = target: T1, hKCNQ2/3 (Homo sapiens, UniProt O43525+O43526); test: hKCNQ2/3 thallium flux assay (FLIPR); assay type: cell-based; conditions: agonistic effect, CHO cell line stably expressing hKCNQ2/3
T1 construct: expressed in transfected cells; host or cells: CHO
Text: The present disclosure also provides the following assay methods: • Assay method 1: hKCNQ2/3 thallium flux assay • Purpose of the assay: To determine the in vitro concentration-response relationship of the compounds in a CHO cell line stably expressing hKCNQ2/3 using FLIPR thallium flux assay.
CHO cells stably transfected with hKCNQ2/3.
The cell line was passaged three times a week at a split ratio of 1:2 to 1:3. When the cells grew to a confluence degree of greater than 80% in a T-75 cell flask, they were digested with 0.25% trypsin-EDTA solution for about 1 minute, and then the cells were transferred from the cell flask for passage. According to the split ratio, the cells were transferred to another T-75 cell flask containing complete cell growth culture medium. Note: In order to maintain the logarithmic growth of cells, the cell growth should be maintained in a subconfluent monolayer state. The cells were passaged every 2 to 3 days according to the cell doubling time.
• (1) Day 1, cell preparation: The cells were digested according to the above method, and the cell density and viability were determined using Cell Countess. The volume of the single-cell suspension was adjusted with complete cell growth culture medium. Then, the hKCNQ2/3_CHO cells were seeded at a density of approximately 20,000 cells/well (30 µL/well) into a PDL-precoated 384-well plate. Then, the plate was incubated at 37 °C with 5% CO2 humidified air in an incubator overnight. • (2) Day 2, compound preparation: A test compound was diluted to a storage concentration with dimethyl sulfoxide (DMSO), and stored in a freezer at -20 °C. A compound addition program was set up on the ECHO liquid workstation, and the compound was added to the plate using the ECHO liquid workstation. A positive control was prepared using Retigabine (RTG) with a maximum concentration of 100 µM, which was subjected to a 3-fold dilution, resulting in a total of 9 doses constituting the plate map required for plating. Prepare the plate using a stimulation buffer containing 5 mM K^+ and 1 mM Tl^+. Note: 1) K2SO4 and Tl2SO4 were prepared in a 1× chloride-free buffer. When different voltage-gated potassium channels were involved, the concentrations of Tl^+ and K^+ were needed to be adjusted. The concentration of Tl^+ was approximately 0.5 mM to 5 mM, and the concentration of K^+ was approximately 5 mM to 30 mM. 2) Each 1 mM solution of K2SO4 and Tl2SO4 contained 2 mM K^+ and Tl^+. The final concentration should be calculated based on the ion concentrations. 3) TlCl was easily precipitated and a chloride-free buffer was required. • (3) Day 2, assay testing: When the cells reached the confluence degree, the cell analysis plate was taken out from the incubator. The assay buffer was prepared and the Tl^+ dye (Molecular Devices # R8222) was diluted. The culture medium was discarded using the liquid workstation Bravo and 25 µL of Tl^+ dye was added to each well. The plate was incubated for 1 hour, and then the cell analysis plate, composite plate, and FLIPR tip were placed in FLIPR^TETRA (Molecular Devices, USA) for FLIPR assay. The tip was set up, and then the baseline was read for 60 seconds. Then, 12.5 µL from the composite plate (3×) was added to the cell analysis plate, and the data were recorded for at least 5 minutes at the same time. • (4) Data processing: The maximum signal was generated with FLIPR software. Excel (2013) and Prism 6.01 were used for data analysis. The data quality control was performed with S/B > 2.00 and Z-factor > 0.50. IC50 or EC50 was defined as the midline between the lowest and the highest plateaus, and it was calculated using a four-parameter logistic model with Prism 6.01.
Purpose of the assay: To determine the in vitro concentration-response relationship of the compounds in a CHO cell line stably expressing hKCNQ2/3 using FLIPR thallium flux assay. […]

male CD-1 mice = test: Maximal electroshock-induced epilepsy model, behavioral pharmacodynamics; assay type: in vivo; conditions: 5 mg/kg orally, one hour before electrical stimulation
Text: This study used behavioral tests in male CD-1 mice to investigate the effects of test compounds on acute epileptic seizures behavior induced by maximal electroshock.
Male CD-1 mice (25 to 35g) were used as the experimental animals and fed with standard feed (Beijing Vital River Laboratory Animal Technology Co., Ltd.).
After arriving at the animal facility, the experimental animals needed to acclimatize for at least one week. The mice were observed daily for vital signs, and randomly divided into groups according to their body weights one day before the drug administration. One hour before the electrical stimulation, different dosages of the test compound were orally administered to each group. On the day of the assay, the male CD-1 mice in each group were anesthetized locally at the cornea with 2% lidocaine. Then, silver bipolar electrodes were used to electrically stimulate the cornea of the mice with 18 mA, 60 Hz, a pulse width of 0.6 ms, and a stimulation time of 1 s to induce seizures. Subsequently, the latency of seizures and the duration of limb rigidity in mice after the electrical stimulation were observed, and the protection rate from seizures for each group was statistically analyzed.

[1] = Plasma protein binding rate, equilibrium dialysis (monkey plasma); assay type: in vitro ADME, cynomolgus monkeys; conditions: c (cynomolgus monkey plasma), dialysis 4 hours at 37 °C, read-out: Unbound PPB%
Method: (§1) The protein binding rates of the compounds in the plasma of CD-1 mice, Sprague-Dawley rats, beagle dogs, cynomolgus monkeys, and human were determined using equilibrium dialysis method.
(§2) Commercially available plasma, dual-layer dialysis membrane, and equilibrium dialysis device.
(§3) The dual-layer dialysis membrane was soaked in ultrapure water for about 1 hour, removed and then divided into two parts. It was then soaked in an ethanol:water (20:80, v:v) solution for 20 minutes or placed at 2 to 8 °C, and it was valid for 1 month. Before starting the assay, the dialysis membrane was rinsed twice with ultrapure water and then soaked in ultrapure water for another 20 minutes for later use.
(§4) On the day of assay, the frozen plasma of CD-1 mice, Sprague-Dawley rats, beagle dogs, cynomolgus monkeys, and human was thawed in running cold tap water. After the plasma was completely thawed, the plasma was centrifuged at 3220×g for 5 minutes, and the suspended substances and precipitates in it were removed. The pH of the plasma was determined. The plasma with a pH in the range of 7.4 ± 0.1 was directly used, or the plasma with a pH in the range of 7.4 ± 0.1 after an adjustment with 1% phosphoric acid or 1M sodium hydroxide was used.
(§5) Preparation process of plasma samples: 597 µL of blank plasma from each of the above five species was taken, respectively. 3 µL of a compound or warfarin working solution was added, and the mixture was mixed thoroughly to give a plasma sample with a compound concentration of 2 µM and a warfarin concentration of 2 µM (n=1). The concentration of the organic phase DMSO was 0.5%. The sample was thoroughly mixed before proceeding to the next step.
(§6) Preparation process of T0 samples: 50 µL of a plasma sample containing the compound and warfarin was transferred to a sample receiving plate (n=3), and 50 µL of blank PBS was immediately added. Then, 500 µL of stop solution was added to the T0 sample of the compound and warfarin, and the mixture was stored at 2 to 8 °C, waiting to be processed later together with other dialysis-processed samples.
(§7) Dialysis process of plasma samples: 100 µL of a compound (2 µM) and warfarin (2 µM) plasma sample was added to the donor of each dialysis well (n=3), and 100 µL of blank PBS was added to the corresponding receiver of the dialysis well. The dialysis plate was placed in a 5% CO2 incubator, and incubated at 37 °C with shaking at approximately 100 rpm for 4 hours.
(§8) After the dialysis was completed, 50 µL of dialysis-processed PBS sample and dialysis-processed plasma sample (n=3) were transferred to a new 96-well plate (sample receiving plate). The corresponding volume of the corresponding blank plasma or PBS was added to the sample to make the final volume of each sample well 100 µL, with a plasma to PBS volume ratio of 1:1. All the samples were analyzed by LC-MS/MS after protein precipitation.
(§9) The formulas for calculating the unbound fraction (%Unbound), bound fraction (%Bound) and recovery fraction (%Recovery) of a compound are as follows: %Unbound = 100 ×F / T %Bound = 100 - %Unbound %Recovery = 100 ×(F + T)/ T0 wherein F is the concentration of the compound at the receiver of dialysis; T is the concentration of the compound at the supply end of dialysis; and T0 is the concentration of the compound in the plasma at time zero.

[2] = Plasma protein binding rate, equilibrium dialysis (human plasma); assay type: in vitro ADME; conditions: dialysis 4 hours at 37 °C, read-out: Unbound PPB%
Method: as §1, §2, §3, §4, §5, §6, §7, §8, §9

[3] = Plasma protein binding rate, equilibrium dialysis (mouse plasma); assay type: in vitro ADME, CD-1 mice; conditions: m (CD-1 mouse plasma), dialysis 4 hours at 37 °C, read-out: Unbound PPB%
Method: as §1, §2, §3, §4, §5, §6, §7, §8, §9

[4] = Plasma protein binding rate, equilibrium dialysis (rat plasma); assay type: in vitro ADME, Sprague-Dawley rats; conditions: r (Sprague-Dawley rat plasma), dialysis 4 hours at 37 °C, read-out: Unbound PPB%
Method: as §1, §2, §3, §4, §5, §6, §7, §8, §9

[5] = Plasma protein binding rate, equilibrium dialysis (dog plasma); assay type: in vitro ADME, beagle dogs; conditions: d (beagle dog plasma), dialysis 4 hours at 37 °C, read-out: Unbound PPB%
Method: as §1, §2, §3, §4, §5, §6, §7, §8, §9

T1 sequence (O43525 whole entry): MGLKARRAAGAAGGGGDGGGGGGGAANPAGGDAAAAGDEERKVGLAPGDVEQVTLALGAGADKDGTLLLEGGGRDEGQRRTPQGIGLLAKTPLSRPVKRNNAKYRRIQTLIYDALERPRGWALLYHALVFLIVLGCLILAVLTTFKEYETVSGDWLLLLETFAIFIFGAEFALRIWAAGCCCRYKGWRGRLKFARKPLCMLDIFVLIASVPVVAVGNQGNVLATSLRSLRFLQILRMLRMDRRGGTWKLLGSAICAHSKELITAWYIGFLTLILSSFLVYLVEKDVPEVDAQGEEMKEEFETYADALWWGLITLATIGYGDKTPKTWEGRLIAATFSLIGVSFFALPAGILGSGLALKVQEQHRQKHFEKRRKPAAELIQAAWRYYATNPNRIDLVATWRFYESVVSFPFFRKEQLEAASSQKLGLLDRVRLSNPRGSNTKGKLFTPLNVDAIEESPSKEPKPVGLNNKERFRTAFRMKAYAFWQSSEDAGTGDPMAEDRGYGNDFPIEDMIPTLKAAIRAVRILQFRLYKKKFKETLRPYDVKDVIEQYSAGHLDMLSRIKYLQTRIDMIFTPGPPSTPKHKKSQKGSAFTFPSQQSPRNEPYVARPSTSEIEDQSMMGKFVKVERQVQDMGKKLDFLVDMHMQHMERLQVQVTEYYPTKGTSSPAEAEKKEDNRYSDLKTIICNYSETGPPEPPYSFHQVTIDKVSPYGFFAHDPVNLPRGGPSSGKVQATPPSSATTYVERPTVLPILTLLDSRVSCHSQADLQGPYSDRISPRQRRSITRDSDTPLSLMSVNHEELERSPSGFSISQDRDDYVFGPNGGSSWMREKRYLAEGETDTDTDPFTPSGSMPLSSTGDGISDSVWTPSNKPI
T1 sequence (O43526 whole entry): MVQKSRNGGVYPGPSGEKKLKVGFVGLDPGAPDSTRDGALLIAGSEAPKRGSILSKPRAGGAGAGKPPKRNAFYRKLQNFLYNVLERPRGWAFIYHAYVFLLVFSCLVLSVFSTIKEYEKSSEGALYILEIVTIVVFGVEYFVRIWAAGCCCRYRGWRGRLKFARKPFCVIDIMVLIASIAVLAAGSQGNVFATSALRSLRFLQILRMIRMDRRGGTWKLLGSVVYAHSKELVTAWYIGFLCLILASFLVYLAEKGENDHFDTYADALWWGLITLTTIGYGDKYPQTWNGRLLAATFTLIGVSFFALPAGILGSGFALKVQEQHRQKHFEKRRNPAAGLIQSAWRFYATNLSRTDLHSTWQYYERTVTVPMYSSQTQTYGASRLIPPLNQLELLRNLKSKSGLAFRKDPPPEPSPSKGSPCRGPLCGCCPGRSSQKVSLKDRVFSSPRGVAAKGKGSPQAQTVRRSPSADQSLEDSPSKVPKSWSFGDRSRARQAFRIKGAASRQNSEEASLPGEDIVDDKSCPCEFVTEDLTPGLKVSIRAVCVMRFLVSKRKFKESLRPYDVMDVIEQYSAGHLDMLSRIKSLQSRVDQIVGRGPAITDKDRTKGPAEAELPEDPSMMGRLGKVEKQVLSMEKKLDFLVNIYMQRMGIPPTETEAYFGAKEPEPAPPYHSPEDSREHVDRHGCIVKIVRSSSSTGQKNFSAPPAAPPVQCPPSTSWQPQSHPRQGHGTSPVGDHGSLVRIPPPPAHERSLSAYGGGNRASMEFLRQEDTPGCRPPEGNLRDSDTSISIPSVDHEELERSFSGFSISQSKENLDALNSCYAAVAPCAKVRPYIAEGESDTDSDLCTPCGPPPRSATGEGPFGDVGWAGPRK

Structure (SMILES)	EC50 (hKCNQ2/3)	Protection rate from seizures (male CD-1 mice)	fraction unbound at 4 h, 2 µM [1]	fraction unbound at 4 h, 2 µM [2]	fraction unbound at 4 h, 2 µM [3]	fraction unbound at 4 h, 2 µM [4]	fraction unbound at 4 h, 2 µM [5]
CC(C)(C)CC(=O)Nc1nc2cc3c(cc2n1C1CCC1)CCC3 [Compound 7]	420 nM	66.67%	0.012	0.004	0.003	0.003	0.006
CC(C)(C)CC(=O)Nc1nc2c(F)c3c(cc2n1C1CCC1)CCC3 [Compound 8]	420 nM	50%	–	–	–	–	–
CC(C)(C)CC(=O)Nc1nc2cc3c(cc2n1C1(C)CCC1)CCC3 [Compound 9]	160 nM	50%	0.004	0.003	0.002	0.002	0.004
CC(C)(C)CC(=O)Nc1nc2cc3c(cc2n1C(C)(C)C)CCC3 [Compound 10]	120 nM	33.33%	–	–	–	–	–
